Tests used:
Format in all cases: in vivo
[1] = test system: wheat, winter (winter wheat, Triticum aestivum); test: Test D pre-/postemergence: wheat, winter
Excerpt: (§1) Seeds of plant species selected from bluegrass (annual bluegrass, Poa annua), blackgrass (Alopecurus myosuroides), canarygrass (Phalaris minor), chickweed (common chickweed, Stellaria media), galium (catchweed bedstraw, Galium aparine), bromegrass, downy (downy bromegrass, Bromus tectorum), field poppy (Papaver rhoeas), field violet (Viola arvensis), foxtail, green (green foxtail, Setaria viridis), deadnettle (henbit deadnettle, Lamium amplexicaule), ryegrass, Italian (Italian ryegrass, Lolium multiflorum), kochia (Kochia scoparia), lambsquarters (Chenopodium album), oilseed rape (Brassica napus), pigweed (Amaranthus retroflexus), Russian thistle (Salsola iberica), chamomile (scentless chamomile, Matricaria inodora), speedwell (bird's-eye speedwell, Veronica persica), barley, spring (spring barley, Hordeum vulgare), wheat, spring (spring wheat, Triticum aestivum), buckwheat, wild (wild buckwheat, Polygonum convolvulus), mustard, wild (wild mustard, Sinapis arvensis), oat, wild (wild oat, Avena fatua), radish, wild (wild radish, Raphanus raphanistrum), windgrass (Apera spica-venti), barley, winter (winter barley, Hordeum vulgare), and wheat, winter (winter wheat, Triticum aestivum) were planted into a silt loam soil and treated preemergence with test chemicals formulated in a non-phytotoxic solvent mixture which included a surfactant. At the same time, these same crop and weed species were planted in pots containing the planting medium comprising spaghnum peat moss, vermiculite, wetting agent and starter nutrients and treated with postemergence applications of the test chemicals formulated in the same manner. Plants ranged in height from 2 to 18 cm (1- to 4-leaf stage).
(§2) Treated plants and controls were maintained in a controlled growth environment for 14 to 21 days after which time all species were compared to controls and visually evaluated. Plant response ratings, summarized in Table D, are based on a scale of 0 to 100 where 0 is no effect and 100 is complete control. A dash (-) response means no test result.

[2] = test system: buckwheat, wild (wild buckwheat, Polygonum convolvulus); test: Test D pre-/postemergence: buckwheat, wild
Excerpt: as §1, §2

[3] = test system: cocklebur (common cocklebur, Xanthium strumarium); test: Test F pre-/postemergence: cocklebur; conditions: Preemergence
Excerpt: (§3) Seeds of plant species selected from corn (Zea mays), soybean (Glycine max), velvetleaf (Abutilon theophrasti), lambsquarters (Chenopodium album), poinsettia, wild (wild poinsettia, Euphorbia heterophylla), pigweed, palmer (palmer pigweed, Amaranthus palmeri), waterhemp (common waterhemp, Amaranthus rudis), surinam grass (Brachiaria decumbens), crabgrass, Brazil (Brazilian crabgrass, Digitaria horizontalis), panicum, fall (fall panicum Panicum dichotomiflorum), crabgrass, large (large crabgrass, Digitaria sanguinalis), foxtail, giant (giant foxtail, Setaria faberii), foxtail, green (green foxtail Setaria viridis), goosegrass (Eleusine indica), ragweed (common ragweed, Ambrosia elatior), barnyardgrass (Echinochloa crus-galli), sandbur (southern sandbur, Cenchrus echinatus), arrowleaf sida (Sida rhombifolia), ryegrass, Italian (Italian ryegrass, Lolium multiflorum), dayflower, VA (Virginia (VA) dayflower, Commelina virginica), field bindweed (Convolvulus arvensis), cocklebur (common cocklebur, Xanthium strumarium), morningglory (Ipomoea coccinea), nightshade (eastern black nightshade, Solanum ptycanthum), kochia (Kochia scoparia), nutsedge, yellow (yellow nutsedge, Cyperus esculentus), johnsongrass (Sorghum halepense), smartweed (ladysthumb smartweed, Polygonum persicaria), and beggarticks (hairy beggarticks, Bidens pilosa), were planted into a silt loam soil and treated preemergence with test chemicals formulated in a non-phytotoxic solvent mixture which included a surfactant. At the same time, plants selected from these crop and weed species and also pigweed (Amaranthus retroflexus), waterhemp_RES1 (ALS/Triazine resistant common waterhemp, Amaranthus rudis) and waterhemp_RES2 (ALS/HPPD resistant common waterhemp, Amaranthus rudis) were planted in pots containing a planting medium comprising spaghnum peat moss, vermiculite, wetting agent and starter nutrients treated with postemergence applications of some of the test chemicals formulated in the same manner. Plants ranged in height from 2 to 18 cm for postemergence treatments (1- to 4-leaf stage).
as §2, with “greenhouse” for “controlled growth environment”, “days,” for “days”, “E,” for “D,”

[4] = test system: goosegrass (Eleusine indica); test: Test F pre-/postemergence: goosegrass; conditions: Preemergence
In short: (§4)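 Preemergence treatment of seeds sown in silt loam soil, and postemergence treatment of plants 2–18 cm tall (1- to 4-leaf stage), with compounds in non-phytotoxic solvent plus surfactant. Greenhouse 14–21 days, then visual rating versus controls on 0–100 scale (100 = complete control).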

[5] = test system: foxtail, green (green foxtail Setaria viridis); test: Test F pre-/postemergence: foxtail, green; conditions: Preemergence
Excerpt: as §3
as §2, with “greenhouse” for “controlled growth environment”, “days,” for “days”, “E,” for “D,”

[6] = test system: velvetleaf (Abutilon theophrasti); test: Test F pre-/postemergence: velvetleaf; conditions: Preemergence
In short: as §4

[7] = test system: pigweed, palmer (palmer pigweed, Amaranthus palmeri); test: Test F pre-/postemergence: pigweed, palmer
In short: as §4

[8] = test system: ragweed (common ragweed, Ambrosia elatior); test: Test F pre-/postemergence: ragweed; conditions: Preemergence
Excerpt: as §3
as §2, with “greenhouse” for “controlled growth environment”, “days,” for “days”, “E,” for “D,”

[9] = test system: field bindweed (Convolvulus arvensis); test: Test F pre-/postemergence: field bindweed
In short: as §4

[10] = test system: bluegrass (annual bluegrass, Poa annua); test: Test D pre-/postemergence: bluegrass
Excerpt: as §1, §2

[11] = test system: dayflower, VA (Virginia (VA) dayflower, Commelina virginica); test: Test F pre-/postemergence: dayflower, VA
Excerpt: as §3
as §2, with “greenhouse” for “controlled growth environment”, “days,” for “days”, “E,” for “D,”

[12] = Postemergence, 31 g ai/ha, scale 0 to 100 (0 no effect, 100 complete control)
[13] = Postemergence, 62 g ai/ha, scale 0 to 100 (0 no effect, 100 complete control)
[14] = Postemergence, 125 g ai/ha, scale 0 to 100, 0 no effect, 100 complete control
[15] = Postemergence, 16 g ai/ha, scale 0 to 100
[16] = Preemergence, 16 g ai/ha, scale 0 to 100, 0 no effect, 100 complete control
[17] = Preemergence, 31 g ai/ha, scale 0 to 100, 0 no effect, 100 complete control
[18] = Preemergence, 62 g ai/ha, scale 0 to 100
[19] = Preemergence, 125 g ai/ha, scale 0 to 100
[20] = 31 g ai/ha, scale 0 to 100, 0 no effect, 100 complete control
[21] = 16 g ai/ha, scale 0 to 100, 0 no effect, 100 complete control
[22] = Preemergence, 250 g ai/ha, scale 0 to 100
[23] = Postemergence, 250 g ai/ha, scale 0 to 100
[24] = Postemergence, 31 g ai/ha, scale 0 to 100
[25] = Postemergence, 62 g ai/ha, scale 0 to 100
[26] = Postemergence, 125 g ai/ha, scale 0 to 100

Cc1nn(-c2ccc(C(F)(F)F)c(F)c2)nc1Oc1ccnc(C(F)(F)F)c1 [Compound 148]
Plant response rating: Wheat, Winter [1, 12]: 10
Plant response rating: Wheat, Winter [1, 13]: 15
Plant response rating: Wheat, Winter [1, 14]: 25
Plant response rating, Wheat, Winter [1, 15]: 10
Plant response rating, Wheat, Winter [1, 16]: 0
Plant response rating, Wheat, Winter [1, 17]: 5
Plant response rating, Wheat, Winter [1, 18]: 0
Plant response rating, Wheat, Winter [1, 19]: 10
Plant response rating: Buckwheat, Wild [2, 12]: 60
Plant response rating: Buckwheat, Wild [2, 13]: 75
Plant response rating: Buckwheat, Wild [2, 14]: 70
Plant response rating, Buckwheat, Wild [2, 15]: 60
Plant response rating, Buckwheat, Wild [2, 16]: 20
Plant response rating, Buckwheat, Wild [2, 17]: 30
Plant response rating, Buckwheat, Wild [2, 18]: 65
Plant response rating, Buckwheat, Wild [2, 19]: 50
Plant response rating, Cocklebur [3, 20]: 0
Plant response rating, Cocklebur ([3]; 125 g ai/ha, scale 0 to 100): 0
Plant response rating, Goosegrass [4, 21]: 25
Plant response rating, Goosegrass [4, 20]: 98
Plant response rating, Goosegrass ([4]; 62 g ai/ha, scale 0 to 100): 100
Plant response rating, Goosegrass ([4]; 125 g ai/ha, scale 0 to 100): 100
Plant response rating, Goosegrass ([4]; 250 g ai/ha, scale 0 to 100): 100
Plant response rating, Foxtail, Green [5, 21]: 35
Plant response rating, Foxtail, Green [5, 20]: 100
Plant response rating, Foxtail, Green ([5]; 62 g ai/ha, scale 0 to 100): 100
Plant response rating, Foxtail, Green ([5]; 125 g ai/ha, scale 0 to 100): 100
Plant response rating, Foxtail, Green ([5]; 250 g ai/ha, scale 0 to 100): 100
Plant response rating, Velvetleaf [6, 21]: 0
Plant response rating, Velvetleaf [6, 20]: 0
Plant response rating, Velvetleaf ([6]; 125 g ai/ha, scale 0 to 100): 25
Plant response rating, Velvetleaf ([6]; 250 g ai/ha, scale 0 to 100): 65
Plant response rating, Pigweed, Palmer [7, 16]: 0
Plant response rating, Pigweed, Palmer [7, 17]: 90
Plant response rating, Pigweed, Palmer [7, 19]: 100
Plant response rating, Pigweed, Palmer [7, 22]: 100
Plant response rating, Ragweed [8, 21]: 0
Plant response rating, Ragweed [8, 20]: 0
Plant response rating, Ragweed ([8]; 125 g ai/ha, scale 0 to 100): 75
Plant response rating, Ragweed ([8]; 250 g ai/ha, scale 0 to 100): 75
Plant response rating, Field Bindweed [9, 16]: 0
Plant response rating, Field Bindweed [9, 17]: 0
Plant response rating, Field Bindweed [9, 18]: 0
Plant response rating, Field Bindweed [9, 19]: 20
Plant response rating, Field Bindweed [9, 22]: 50
Plant response rating: Bluegrass [10, 12]: 15
Plant response rating: Bluegrass [10, 13]: 25
Plant response rating: Bluegrass [10, 14]: 70
Plant response rating, Bluegrass [10, 15]: 5
Plant response rating, Bluegrass [10, 16]: 0
Plant response rating, Bluegrass [10, 17]: 15
Plant response rating, Bluegrass [10, 18]: 60
Plant response rating, Bluegrass [10, 19]: 50
Plant response rating, Dayflower, VA [11, 16]: 0
Plant response rating, Dayflower, VA [11, 17]: 40
Plant response rating, Dayflower, VA [11, 18]: 40
Plant response rating, Dayflower, VA [11, 19]: 65
Plant response rating, Dayflower, VA [11, 22]: 90

CCc1nn(-c2ccc(C(F)(F)F)cc2)nc1Oc1ccnc(C(F)(F)F)c1 [Compound 169]
Plant response rating, Cocklebur [3, 21]: 0
Plant response rating, Cocklebur [3, 20]: 0
Plant response rating, Cocklebur ([3]; 62 g ai/ha, scale 0 to 100): 0
Plant response rating, Goosegrass [4, 21]: 50
Plant response rating, Goosegrass [4, 20]: 95
Plant response rating, Goosegrass ([4]; 62 g ai/ha, scale 0 to 100): 100
Plant response rating, Goosegrass ([4]; 125 g ai/ha, scale 0 to 100): 100
Plant response rating, Goosegrass ([4]; 250 g ai/ha, scale 0 to 100): 100
Plant response rating, Foxtail, Green [5, 21]: 98
Plant response rating, Foxtail, Green [5, 20]: 100
Plant response rating, Foxtail, Green ([5]; 62 g ai/ha, scale 0 to 100): 100
Plant response rating, Foxtail, Green ([5]; 125 g ai/ha, scale 0 to 100): 100
Plant response rating, Foxtail, Green ([5]; 250 g ai/ha, scale 0 to 100): 100
Plant response rating, Velvetleaf [6, 21]: 0
Plant response rating, Velvetleaf [6, 20]: 0
Plant response rating, Velvetleaf ([6]; 125 g ai/ha, scale 0 to 100): 60
Plant response rating, Velvetleaf ([6]; 250 g ai/ha, scale 0 to 100): 100
Plant response rating, Pigweed, Palmer [7, 23]: 100
Plant response rating, Pigweed, Palmer [7, 15]: 50
Plant response rating, Pigweed, Palmer [7, 24]: 50
Plant response rating, Pigweed, Palmer [7, 25]: 90
Plant response rating, Pigweed, Palmer [7, 26]: 100
Plant response rating, Pigweed, Palmer [7, 16]: 35
Plant response rating, Pigweed, Palmer [7, 17]: 100
Plant response rating, Pigweed, Palmer [7, 19]: 100
Plant response rating, Pigweed, Palmer [7, 22]: 100
Plant response rating, Ragweed [8, 21]: 0
Plant response rating, Ragweed [8, 20]: 0
Plant response rating, Ragweed ([8]; 125 g ai/ha, scale 0 to 100): 60
Plant response rating, Ragweed ([8]; 250 g ai/ha, scale 0 to 100): 100
Plant response rating, Field Bindweed [9, 23]: 55
Plant response rating, Field Bindweed [9, 15]: 20
Plant response rating, Field Bindweed [9, 24]: 20
Plant response rating, Field Bindweed [9, 25]: 30
Plant response rating, Field Bindweed [9, 26]: 35
Plant response rating, Field Bindweed [9, 16]: 0
Plant response rating, Field Bindweed [9, 17]: 0
Plant response rating, Field Bindweed [9, 19]: 20
Plant response rating, Field Bindweed [9, 22]: 80
Plant response rating, Dayflower, VA [11, 23]: 20
Plant response rating, Dayflower, VA [11, 15]: 10
Plant response rating, Dayflower, VA [11, 24]: 10
Plant response rating, Dayflower, VA [11, 25]: 10
Plant response rating, Dayflower, VA [11, 26]: 10
Plant response rating, Dayflower, VA [11, 16]: 0
Plant response rating, Dayflower, VA [11, 17]: 5
Plant response rating, Dayflower, VA [11, 18]: 10
Plant response rating, Dayflower, VA [11, 19]: 65
Plant response rating, Dayflower, VA [11, 22]: 75
